Results as given in the supplement of paper PMC8967900.

Key:
Experiment in all cases: selective drug sensitivity score (sDSS, relative to normal bone marrow) (sDSS (score)); higher = more potent and effective on the cell line relative to normal bone marrow cells
Settings in all cases: 72 h
[1] = tested on: HPB-ALL
[2] = tested on: 380
[3] = tested on: RCH-ACV
[4] = tested on: TANOUE
[5] = tested on: DND-41
[6] = tested on: JURKAT
[7] = tested on: P30-OHKUBO
[8] = tested on: NALM-16
[9] = tested on: COG-LL-317
[10] = tested on: ALL-SIL
[11] = tested on: KASUMI-9
[12] = tested on: COG-LL-394h
[13] = tested on: PEER
[14] = tested on: KASUMI-10
[15] = tested on: ALL-PO
[16] = tested on: COG-LL-319h
[17] = tested on: COG-LL-355h
[18] = tested on: MOLT-4
[19] = tested on: REH
[20] = tested on: MOLT-14
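Also: ALL cell lines in 384-well plates, five doses spanning 10,000-fold, each plate scaled between vehicle and 100 µmol/L benzalkonium chloride controls, sDSS an adapted area-under-curve metric.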

Row | SMILES | selective drug sensitivity score [1] | selective drug sensitivity score [2] | selective drug sensitivity score [3] | selective drug sensitivity score [4] | selective drug sensitivity score [5] | selective drug sensitivity score [6] | selective drug sensitivity score [7] | selective drug sensitivity score [8] | selective drug sensitivity score [9] | selective drug sensitivity score [10] | selective drug sensitivity score [11] | selective drug sensitivity score [12] | selective drug sensitivity score [13] | selective drug sensitivity score [14] | selective drug sensitivity score [15] | selective drug sensitivity score [16] | selective drug sensitivity score [17] | selective drug sensitivity score [18] | selective drug sensitivity score [19] | selective drug sensitivity score [20]
1 | COc1cc2c(N3CCN(C(=O)Nc4ccc(OC(C)C)cc4)CC3)ncnc2cc1OCCCN1CCCCC1 [Tandutinib] (top concentration 1000 nM) | 0 | 0 | 0 | 0 | 2.3 | 0 | 0 | 0.8 | 0.7 | 0 | 0 | 0.3 | 0 | 4.5 | 3.1 | 0 | 0 | 0 | 0 | 0
2 | Nc1nc(N)c2nc(-c3cccc(O)c3)c(-c3cccc(O)c3)nc2n1 [TG100-115] (top concentration 10000 nM) | -0.4 | 2.1 | 5.6 | -0.4 | 0.1 | -0.3 | 3.6 | 0.5 | -0.1 | 0.7 | 1.6 | -0.4 | -0.2 | 0.1 | -0.2 | 0.6 | 3.7 | -0.4 | 5.1 | -0.4
3 | COc1cc2/c(=N/c3ccc(Br)cc3F)nc[nH]c2cc1OCC1CCN(C)CC1 [Vandetanib] (top concentration 1000 nM) | -0.22 | -0.22 | -0.22 | -0.22 | -0.22 | -0.22 | 0.38 | -0.22 | -0.22 | 2.68 | -0.22 | -0.22 | 1.38 | -0.22 | -0.22 | -0.22 | -0.22 | -0.22 | -0.22 | 0.48
4 | CC/C(=C(\c1ccccc1)c1ccc(OCCN(C)C)cc1)c1ccccc1 [Tamoxifen] (top concentration 10000 nM) | 6.02 | 0.02 | 4.42 | -2.28 | 3.72 | -1.48 | 3.32 | -3.18 | 1.42 | 3.12 | 1.52 | 2.32 | 1.02 | -3.28 | 2.72 | 5.42 | 1.82 | -0.98 | 1.02 | 0.62
5 | Cc1c(Cn2c(C)nc3c(C(=O)O)cc(N4CCOCC4)cc32)cccc1C(F)(F)F (top concentration 10000 nM) | -0.02 | -0.02 | 5.18 | -0.02 | 1.78 | -0.02 | 2.38 | -0.02 | 2.28 | -0.02 | 1.08 | -0.02 | -0.02 | -0.02 | 0.08 | -0.02 | 1.98 | -0.02 | 0.68 | 0.38
6 | CCOCc1nc2c(N)nc3ccccc3c2n1CC(C)(C)O [Resiquimod] (top concentration 10000 nM) | -4.92 | -4.62 | -4.92 | -3.02 | -4.92 | -4.52 | -2.82 | -4.92 | -4.02 | -4.92 | -4.92 | -4.42 | -4.92 | -2.72 | -4.92 | 5.68 | -4.92 | -4.92 | -4.92 | -4.92
7 | Cc1cc(C)c(CNC(=O)c2cc(-c3ccc(CN4CCOCC4)cc3)cc3c2cnn3C2CCCC2)c(=O)[nH]1 [EPZ-5687] (top concentration 10000 nM) | -0.36 | -0.36 | -0.36 | -0.36 | -0.36 | -0.36 | 2.24 | -0.36 | -0.36 | -0.36 | 3.14 | -0.36 | -0.36 | -0.36 | 0.24 | -0.36 | -0.36 | -0.36 | 6.64 | -0.36
8 | O=C(Nc1cccnc1)N1CCC(Cc2cccc(Oc3ccc(C(F)(F)F)cn3)c2)CC1 [PF-3845] (top concentration 10000 nM) | -0.14 | -1.34 | 5.66 | 3.66 | -0.24 | 6.36 | 0.46 | 0.36 | 0.26 | -0.84 | -0.84 | 3.96 | 7.06 | -1.34 | 2.36 | -0.04 | -0.54 | 2.36 | 2.96 | 2.26
9 | CC(C)(O)CC(=O)NCCn1ccc2ncnc(Nc3ccc(Oc4cccc(C(F)(F)F)c4)c(Cl)c3)c21 [TAK-285] (top concentration 2500 nM) | 0 | 0 | 0 | 0 | 0 | 0 | 0 | 0 | 0 | 0 | 3.3 | 0 | 0 | 0 | 0 | 0 | 0 | 0 | 0.1 | 0
